# Laboratory results published in patent publication US20070010532A1, “3-Pyridylcarboxamide derivatives as pesticidal agents” (BAYER CROPSCIENCE GMBH, priority 2003, published 2007).
# What was measured:
# [1] = test system: black bean aphids (Aphis fabae); assay: Method B: root-systemic action, preparation pipetted into the bottle of field bean (Vicia faba) populated with aphids; type: in vivo; settings: read-out: mortality among the aphids, by root-systemic action
# Description: Germinated field bean seeds (Vicia faba) with seed roots were transferred into brown glass bottles filled with tap water and then populated with about 100 black bean aphids (Aphis fabae). Plants and aphids were then dipped into an aqueous solution of the formulated preparation to be examined for 5 seconds. After they had drained, plants and animals were stored in a climatized chamber (16 hours of light/day, 25° C., 40-60% relative atmospheric humidity). After 3 and 6 days of storage, the effect of the preparation on the aphids was determined. […] Method B:
# Germinated field bean seeds (Vicia faba) with seed roots were transferred into brown glass bottles filled with tap water. Four milliliters of an aqueous solution of the formulated preparation to be examined were pipetted into the brown glass bottle. The field bean was then heavily populated with about 100 black bean aphids (Aphis fabae). Plants and aphids were then stored in a climatized chamber (16 hours of light/day, 25° C., 40-60% relative atmospheric humidity). After 3 and 6 days of storage, the root-systemic effect of the preparation on the aphids was determined.
# [2] = test system: black bean aphids (Aphis fabae); assay: Method A: field bean plants (Vicia faba) and aphids dipped into aqueous solution of the formulated preparation; type: in vivo; settings: read-out: mortality among the aphids
# Description: Germinated field bean seeds (Vicia faba) with seed roots were transferred into brown glass bottles filled with tap water and then populated with about 100 black bean aphids (Aphis fabae). Plants and aphids were then dipped into an aqueous solution of the formulated preparation to be examined for 5 seconds. After they had drained, plants and animals were stored in a climatized chamber (16 hours of light/day, 25° C., 40-60% relative atmospheric humidity). After 3 and 6 days of storage, the effect of the preparation on the aphids was determined. […]
smiles,measurement,setting,value
"CCC1(C)N/C(=N/C(=O)c2cnccc2C(F)(F)F)NC1=O (stereo not drawn) [Compound B-91, N-[(2Z)-4-ethyl-4-methyl-5-oxo-2-imidazolidinylidene]-4-(trifluoromethyl)nicotinamide]",mortality at 30 ppm,[1],90 to 100%
same,mortality at 300 ppm,[2],90 to 100%
"CC1(C)N/C(=N/C(=O)c2cnccc2C(F)(F)F)N(Cc2ccc(Cl)cc2)C1=O [Compound B-529, N-[(2Z)-1-(4-chlorobenzyl)-4,4-dimethyl-5-oxo-2-imidazolidinylidene]-4-(trifluoromethyl)nicotinamide]",mortality at 30 ppm,[1],90 to 100%
same,mortality at 300 ppm,[2],90 to 100%
"CSC1=N/C(=N\C(=O)c2cnccc2C(F)(F)F)N(C(C)=O)C1(C)C [Compound E-135, N-[(2Z)-1-acetyl-5,5-dimethyl-4-methylthio-1,5-dihydro-2H-imidazol-2-ylidene]-4-(trifluoromethyl)nicotinamide]",mortality at 30 ppm,[1],90 to 100%
same,mortality at 300 ppm,[2],90 to 100%
